In publication PMC10766610, “DCAF1-based PROTACs with activity against clinically validated targets overcoming intrinsic- and acquired-degrader resistance” (Nature Communications, 2024) one finds LYN protein levels data, which are given here for one compound.

SMILES strings stand for the structures.

The assay addresses T1, LYN (Homo sapiens, UniProt P07948).
T1 construct: host or cells: HEK293T
The assay is described as follows: Immunoblot of LYN in HEK293T cells. In kind it is cell-based. As to conditions: 6 h. As to the method:
Whole cell lysates for immunoblotting were prepared by pelleting cells at 4 °C (300 g) for 3 min. Cell pellets were then washed 1x with PBS and resuspended in RIPA lysis buffer (VWR, cat # 97063-270) supplemented with protease (Thermo Scientific, cat # A32955) and phosphatase (Thermo Scientific, cat # A32957) inhibitor tablets. Lysates were clarified at 16,000 × g for 15 min at 4 °C prior to quantification by Lowry assay (Bio-Rad cat # 5000113 and cat # 5000114). Whole-cell lysates were loaded into 4–20% Criterion TGX Precast 18 well gels (Bio-Rad, cat # 5671094) and separated by electrophoreses at 120 V for 1 h. The gels were transferred to a nitrocellulose membrane using the Trans-Blot Turbo (Bio-Rad) for 7 min and then blocked for 1 h at room temperature in Odyssey blocking buffer (LICOR Biosciences, cat # 927-50000). Membranes were probed with the appropriate primary antibodies (diluted 1:1000) overnight at 4 °C in 20% Odyssey blocking buffer in 1x TBST. Membranes were washed three times with 1x TBST (5 min per wash), and then incubated with IRDye goat anti-mouse (LICOR, cat # 926-32210) or goat anti-rabbit (LICOR, cat # 926-32211) secondary antibody diluted 1:10,000 in 20% Odyssey blocking buffer for 1 h at room temperature. After three 5-min washes with 1x TBST, the immunoblots were visualized using the ODYSSEY Infrared Imaging System (LICOR). […]
Background: In western blotting, separated proteins are transferred to a membrane and probed.

T1 sequence (P07948 whole entry): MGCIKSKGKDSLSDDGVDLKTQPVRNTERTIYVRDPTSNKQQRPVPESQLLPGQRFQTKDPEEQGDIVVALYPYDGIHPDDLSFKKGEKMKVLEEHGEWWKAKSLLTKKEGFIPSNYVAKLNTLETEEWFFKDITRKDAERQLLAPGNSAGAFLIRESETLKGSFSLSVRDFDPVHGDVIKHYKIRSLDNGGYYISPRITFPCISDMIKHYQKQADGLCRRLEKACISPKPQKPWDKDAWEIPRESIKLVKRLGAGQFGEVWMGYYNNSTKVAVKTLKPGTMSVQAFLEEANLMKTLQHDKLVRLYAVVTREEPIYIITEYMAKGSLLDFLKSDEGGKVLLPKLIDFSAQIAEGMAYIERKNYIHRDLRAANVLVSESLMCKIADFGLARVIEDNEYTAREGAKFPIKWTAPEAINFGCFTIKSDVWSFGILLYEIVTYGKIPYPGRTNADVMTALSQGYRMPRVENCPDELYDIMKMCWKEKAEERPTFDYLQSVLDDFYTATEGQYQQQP

Regarding `Cc1nc(Nc2ncc(C(=O)Nc3c(C)cccc3Cl)s2)cc(N2CCC(OC3CCN(CCCCCCCC(=O)N4CCN(c5ccc6c(NCCN)nc(C7(c8ccc(Cl)cc8)CCCCC7)nc6c5)CC4)CC3)CC2)n1` [DDa-1], the LYN protein levels result is recorded as “not”.
